According to patent publication US20070105939A1, “Mesylate salt of 5-(2-dimethylaminoethoxy)-1H-indole-2-carboxylic acid [3-(4-hydroxycarbamoylphenyl)prop-2-ynyl]amide” (Pharmacyclics, Inc., priority 2005, published 2007):
Read-outs that look alike come from different tables or passages of the source.

What was measured:
[1] = in vivo
[2] = tested on: histone deacetylase enzyme H1; conditions: disclosed in PCT publication WO 2004/019174; cited from earlier work
[3] = Solubility (background statement)
[4] = Oral bioavailability (background statement); conditions: have to be administered parenterally for therapeutic effect

Row | Structure (SMILES) | oral bioavailability [1] | inhibition of histone deacetylase enzyme H1 [2] | solubility [3] | oral bioavailability [4]
1 | CN(C)CCOc1ccc2[nH]c(C(=O)NCC#Cc3ccc(C(=O)NO)cc3)cc2c1 [5-(2-dimethylaminoethoxy)-1H-indole-2-carboxylic acid [3-(4-hydroxy-carbamoylphenyl)prop-2-ynyl]amide] | poor | inhibitors | – | –
2 | CN(C)CCOc1ccc2[nH]c(C(=O)NCC#Cc3ccc(C(=O)NO)cc3)cc2c1.Cl [hydrochloride salt, 5-(2-dimethylaminoethoxy)-1H-indole-2-carboxylic acid [3-(4-hydroxy-carbamoylphenyl)prop-2-ynyl]amide hydrochloride] | – | inhibitors | poor | poor
